Experimental data published in the supplement of paper PMC10307832.

Experiments:
Assay in all cases: relative viability (nuclei count vs DMSO), 5 days (fraction); higher = more cells survive
MLN4924 + Pictilisib = compound: NS(=O)(=O)OC[C@@H]1C[C@@H](n2ccc3c(N[C@H]4CCc5ccccc54)ncnc32)C[C@@H]1O [MLN4924] + CS(=O)(=O)N1CCN(Cc2cc3nc(-c4cccc5[nH]ncc45)nc(N4CCOCC4)c3s2)CC1 [Pictilisib] (partner 1 µM)
Procedure, shortened: (§1)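 Relative viability divides the nuclei count in treated wells by that in vehicle wells. Lung cancer cell lines were seeded in 1536-well plates, dosed by pin tool the next day, and fixed and stained after 5 days in one step with final 0.05% Triton X-100, 1% formaldehyde and 1 ug/ml Hoechst. Dosing was a single drug or a fixed anchor-drug dose plus five library-drug doses (not always all listed) in √10 steps, and values are medians of duplicate plates imaged at 4×.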

GSK126 + OSI-027 = compound: CC[C@H](C)N1C=C(C2=C(C=C(C=C21)C3=CN=C(C=C3)N4CCNCC4)C(=O)NCC5=C(C=C(NC5=O)C)C)C [GSK126] + COc1cccc2cc(-c3nc([C@H]4CC[C@H](C(=O)O)CC4)n4ncnc(N)c34)[nH]c12 [OSI-027] (partner 0.5 µM)
Procedure, shortened: as §1

MLN4924 + Vorinostat = compound: NS(=O)(=O)OC[C@@H]1C[C@@H](n2ccc3c(N[C@H]4CCc5ccccc54)ncnc32)C[C@@H]1O [MLN4924] + O=C(CCCCCCC(=O)Nc1ccccc1)NO [Vorinostat] (partner 1 µM)
Procedure, shortened: as §1

Carboplatin + Tozasertib = compound: C1CC(C1)(C(=O)O)C(=O)O.[NH2-].[NH2-].[Pt+2] [Carboplatin] + Cc1cc(Nc2cc(N3CCN(C)CC3)nc(Sc3ccc(NC(=O)C4CC4)cc3)n2)n[nH]1 [Tozasertib] (partner 0.1 µM)
Procedure, shortened: as §1

Cell Line	relative viability (MLN4924 + Pictilisib; first compound 0.04 µM)	relative viability (MLN4924 + Pictilisib; first compound 0.1265 µM)	relative viability (MLN4924 + Pictilisib; first compound 0.4 µM)	relative viability (MLN4924 + Pictilisib; first compound 1.265 µM)	relative viability (MLN4924 + Pictilisib; first compound 4 µM)	relative viability (GSK126 + OSI-027; first compound 0.08 µM)	relative viability (GSK126 + OSI-027; first compound 0.253 µM)	relative viability (GSK126 + OSI-027; first compound 0.8 µM)	relative viability (GSK126 + OSI-027; first compound 2.53 µM)	relative viability (GSK126 + OSI-027; first compound 8 µM)	relative viability (MLN4924 + Vorinostat; first compound 0.04 µM)	relative viability (MLN4924 + Vorinostat; first compound 0.1265 µM)	relative viability (MLN4924 + Vorinostat; first compound 0.4 µM)	relative viability (MLN4924 + Vorinostat; first compound 1.265 µM)	relative viability (MLN4924 + Vorinostat; first compound 4 µM)	relative viability (Carboplatin + Tozasertib; first compound 0.08 µM)	relative viability (Carboplatin + Tozasertib; first compound 0.253 µM)	relative viability (Carboplatin + Tozasertib; first compound 0.8 µM)	relative viability (Carboplatin + Tozasertib; first compound 2.53 µM)	relative viability (Carboplatin + Tozasertib; first compound 8 µM)
NCI-H596	0.419	0.448	0.273	0.379	0.349	0.895	0.701	0.798	0.754	0.714	0.471	0.597	0.601	0.382	0.418	0.985	0.98	0.907	0.77	0.491
NCI-H647	0.318	0.469	0.274	0.0538	0.0717	0.69	0.528	0.63	0.649	0.692	0.414	0.391	0.0893	0.0464	0.0578	0.402	0.488	0.272	0.239	0.229
NCI-H650	0.79	0.508	0.335	0.208	0.214	0.49	0.529	0.489	0.497	0.583	0.446	0.306	0.169	0.126	0.143	0.768	0.766	0.638	0.661	0.453
NCI-H661	0.414	0.567	0.482	0.343	0.337	0.769	0.737	0.762	0.746	0.74	0.601	0.619	0.389	0.317	0.382	0.371	0.336	0.33	0.301	0.348
NCI-H727	0.4	0.311	0.268	0.291	0.244	0.653	0.686	0.599	0.603	0.627	1.17	0.847	0.819	0.477	0.451	0.572	0.653	0.54	0.562	0.624
NCI-H838	0.365	0.236	0.253	0.138	0.189	0.43	0.403	0.309	0.424	0.379	0.631	0.4	0.284	0.168	0.151	0.296	0.28	0.254	0.273	0.279
NCI-H1355	0.332	0.421	0.273	0.182	0.176	0.412	0.362	0.418	0.453	0.44	0.592	0.629	0.496	0.236	0.227	0.578	0.616	0.601	0.489	0.55
NCI-H1395	0.626	0.969	0.425	0.313	0.339	0.679	0.561	0.648	0.704	0.649	0.556	0.766	0.523	0.341	0.361	0.721	0.733	0.65	0.646	0.566
